Measured values reported in patent publication US20140228377A1, “METHYLPIPERIDINE DERIVATIVE” (TAISHO PHARMACEUTICAL CO., LTD., priority 2011, published 2014).

Experiments:
[1] = target: T1, human orexin-1 receptor (hOX1R) (Homo sapiens, UniProt O43613); experiment: Orexin antagonistic activity assay (intracellular Ca2+, FDSS) in CHO cells expressing hOX1R; assay type: cell-based; settings: CHO cells expressing hOX1R; ligand peptide 300 pM; Fluo-3 maximum fluorescence intensity; read-out: IC50 value OX1
T1 construct: expressed in transfected cells; host or cells: Chinese hamster ovary (CHO) cells
T1 sequence (O43613 1-425): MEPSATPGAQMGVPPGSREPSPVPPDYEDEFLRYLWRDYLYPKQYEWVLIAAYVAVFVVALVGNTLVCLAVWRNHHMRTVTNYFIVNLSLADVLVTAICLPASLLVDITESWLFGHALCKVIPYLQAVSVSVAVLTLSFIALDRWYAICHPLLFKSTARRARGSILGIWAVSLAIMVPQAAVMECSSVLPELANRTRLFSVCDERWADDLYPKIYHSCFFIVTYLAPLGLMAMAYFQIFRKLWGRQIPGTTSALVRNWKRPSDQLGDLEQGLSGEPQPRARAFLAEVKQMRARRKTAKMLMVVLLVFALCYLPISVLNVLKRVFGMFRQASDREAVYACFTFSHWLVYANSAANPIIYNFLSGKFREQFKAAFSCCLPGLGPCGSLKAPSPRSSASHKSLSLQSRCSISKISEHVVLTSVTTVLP
Method in brief: (§1)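 Recombinant CHO cells, Fluo-3 AM loaded, were preincubated 30 min with compound, then stimulated with a modified orexin-A peptide (300 pM for hOX1R, 3 nM for hOX2R). Peak Ca2+ fluorescence read each second for 3 min; IC50 from concentration-response, normalised to ligand-only (100%) and no-ligand (0%) wells.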

[2] = target: T2, orexin-2 receptor (hOX2R) (Homo sapiens, UniProt O43614); experiment: Orexin antagonistic activity assay (intracellular Ca2+, FDSS) in CHO cells expressing hOX2R; assay type: cell-based; settings: CHO cells expressing hOX2R; ligand peptide 3 nM; Fluo-3 maximum fluorescence intensity; read-out: IC50 value OX2
T2 construct: expressed in transfected cells; host or cells: Chinese hamster ovary (CHO) cells
T2 sequence (O43614 1-444): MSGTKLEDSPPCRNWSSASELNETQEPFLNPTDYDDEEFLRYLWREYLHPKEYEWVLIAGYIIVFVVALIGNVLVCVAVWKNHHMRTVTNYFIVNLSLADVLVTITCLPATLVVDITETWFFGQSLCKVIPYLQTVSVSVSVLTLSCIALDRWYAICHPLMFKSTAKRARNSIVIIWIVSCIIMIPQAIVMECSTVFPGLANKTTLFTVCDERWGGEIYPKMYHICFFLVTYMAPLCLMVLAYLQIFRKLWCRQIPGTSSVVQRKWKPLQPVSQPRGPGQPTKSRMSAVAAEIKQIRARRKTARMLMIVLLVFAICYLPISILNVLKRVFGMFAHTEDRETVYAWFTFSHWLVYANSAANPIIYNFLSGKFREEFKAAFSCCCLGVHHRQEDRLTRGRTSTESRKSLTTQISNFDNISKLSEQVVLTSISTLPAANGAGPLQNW
Method in brief: as §1

[3] = Metabolic stability test using human liver microsomes; assay type: in vitro ADME; settings: human liver microsomes 0.25 mg protein/mL, test compound 1 μM, 37° C., 15 minutes, NADPH production system
Method: The stability test on a test compound was conducted according to the following method using human liver microsomes (Ms):
The test compound was incubated (37° C., 15 minutes) together with human liver microsome fraction (XenoTech LLC; H630B, lot. 0810472) in a 0.1 M phosphate buffer solution (pH 7.4) in the presence of a NADPH production system (0.16 mM NADP+, 2.5 mM MgCl2, and 1.5 mM glucose-6-phosphate). The final concentrations of the test compound and the liver Ms protein were set to 1 μM and 0.25 mg protein/mL, respectively. After the incubation, the reaction mixture was supplemented with a 2-fold volume of DMSO, stirred, and then centrifuged at 2150×g (4° C., 10 minutes). The obtained supernatant was analyzed using a liquid chromatography tandem mass spectrometry (LC-MS/MS) system. The lower limit of quantification was 0.1 μM.

Row | Compound | IC50 [1] [nM] | IC50 [2] [nM] | rate of metabolism [3] [%]
1 | Cc1ccc(-n2nccn2)c(C(=O)N2C[C@H](c3nc4cc(Cl)ccc4o3)CC[C@H]2C)n1 [Example 1, [(2R,5R)-5-(5-Chloro-1,3-benzoxazol-2-yl)-2-methylpiperidin-1-yl][6-methyl-3-(2H-1,2,3-triazol-2-yl)pyridin-2-yl]methanone] | 11 | 12.2 | 27.8
2 | Cc1ccc(-n2nccn2)c(C(=O)N2C[C@H](c3nc4cc(F)cc(F)c4o3)CC[C@H]2C)c1 [Example 62, [(2R,5R)-5-(5,7-Difluoro-1,3-benzoxazol-2-yl)-2-methylpiperidin-1-yl][5-methyl-2-(2H-1,2,3-triazol-2-yl)phenyl]methanone] | 24.8 | 4.3 | –
3 | Cc1ccc(-c2ncccn2)c(C(=O)N2C[C@H](c3nc4cc(F)cc(F)c4o3)CC[C@H]2C)c1 [Example 63, [(2R,5R)-5-(5,7-Difluoro-1,3-benzoxazol-2-yl)-2-methylpiperidin-1-yl][5-methyl-2-(pyrimidin-2-yl)phenyl]methanone] | 29.1 | 5.5 | –
4 | Cc1ccc(-n2nccn2)c(C(=O)N2C[C@H](c3nc4cc(F)cc(F)c4o3)CC[C@H]2C)n1 [Example 64, [(2R,5R)-5-(5,7-Difluoro-1,3-benzoxazol-2-yl)-2-methylpiperidin-1-yl][6-methyl-3-(2H-1,2,3-triazol-2-yl)pyridin-2-yl]methanone] | 144 | 28.5 | –
5 | Cc1ccc(-n2nccn2)c(C(=O)N2C[C@H](c3nc4cccc(F)c4o3)CC[C@H]2C)c1 [Example 65, [(2R,5R)-5-(7-Fluoro-1,3-benzoxazol-2-yl)-2-methylpiperidin-1-yl][5-methyl-2-(2H-1,2,3-triazol-2-yl)phenyl]methanone] | 8.6 | 6.6 | –
6 | Cc1ccc(-n2nccn2)c(C(=O)N2C[C@H](c3nc4c(F)cccc4o3)CC[C@H]2C)c1 [Example 66, [(2R,5R)-5-(4-Fluoro-1,3-benzoxazol-2-yl)-2-methylpiperidin-1-yl][5-methyl-2-(2H-1,2,3-triazol-2-yl)phenyl]methanone] | 36.5 | 20.4 | –
7 | Cc1ccc(-c2ncccn2)c(C(=O)N2C[C@H](c3nc4c(F)cccc4o3)CC[C@H]2C)c1 [Example 67, [(2R,5R)-5-(4-Fluoro-1,3-benzoxazol-2-yl)-2-methylpiperidin-1-yl][5-methyl-2-(pyrimidin-2-yl)phenyl]methanone] | 27.7 | 25.9 | –
8 | Cc1ccc(-n2nccn2)c(C(=O)N2C[C@H](c3nc4c(Cl)cccc4o3)CC[C@H]2C)c1 [Example 68, [(2R,5R)-5-(4-Chloro-1,3-benzoxazol-2-yl)-2-methylpiperidin-1-yl][5-methyl-2-(2H-1,2,3-triazol-2-yl)phenyl]methanone] | 7.1 | 4.6 | –
9 | Cc1ccc(-c2ncccn2)c(C(=O)N2C[C@H](c3nc4c(Cl)cccc4o3)CC[C@H]2C)c1 [Example 69, [(2R,5R)-5-(4-Chloro-1,3-benzoxazol-2-yl)-2-methylpiperidin-1-yl][5-methyl-2-(pyrimidin-2-yl)phenyl]methanone] | 4.4 | 5.5 | –
10 | C[C@@H]1CC[C@@H](c2nc3c(Cl)cccc3o2)CN1C(=O)c1cc(F)ccc1-c1ncccn1 [Example 70, [(2R,5R)-5-(4-Chloro-1,3-benzoxazol-2-yl)-2-methylpiperidin-1-yl][5-fluoro-2-(pyrimidin-2-yl)phenyl]methanone] | 12.3 | 16.2 | –
11 | Cc1ccc(-n2nccn2)c(C(=O)N2C[C@H](c3nc4cc(Cl)cnc4o3)CC[C@H]2C)c1 [Example 71, [(2R,5R)-5-(6-Chloro[1,3]oxazolo[5,4-b]pyridin-2-yl)-2-methylpiperidin-1-yl][5-methyl-2-(2H-1,2,3-triazol-2-yl)phenyl]methanone] | 106 | 6.1 | –
12 | C[C@@H]1CC[C@@H](c2nc3cc(Cl)cnc3o2)CN1C(=O)c1ccc(F)cc1-n1nccn1 [Example 72, [(2R,5R)-5-(6-Chloro[1,3]oxazolo[5,4-b]pyridin-2-yl)-2-methylpiperidin-1-yl][4-fluoro-2-(2H-1,2,3-triazol-2-yl)phenyl]methanone] | 412 | 80.5 | –
